Measured values published in patent publication US4912036A, “Rapid differentiation of bacteria using cyclic polypeptide antibiotics” (Eastman Kodak Company, priority 1986, dated 1990).

Experiments:
E. coli = assay: RIND VII reduction solution assay, ΔOD 635 nm; format: cell-based, Escherichia coli; conditions: E. coli 7 × 10^7 /ml, antibiotic 10^-4 molar
Experimental: (§1) Bacterial suspensions were prepared by growing the cells in BHT broth to stationary phase overnight at 37° C. P. auruginosa was grown with agitation. About 40 ml of each overnight culture was centrifuged, decanted and washed once with 0.05 molar potassium phosphate buffer or 0.05 molar N-2-hydroxy-ethylpiperazine-N'-2-ethanesulfonic acid (HEPES) buffer, pH 7.8, and resuspended in buffer.
TERGITOL 7 anionic surfactant was used to differentiate viable bacteria according to the prior art method. Various concentrations of TERGITOL 7 surfactant were mixed with a 10% glucose solution (50 μl), 3-(4,5-dimethyl-2-thiazolyl)-2,5-diphenyl-2N-tetrazolium bromide (MTT) (25 μl at 5 mg/ml methanol) or a RIND VII dispersion (1.5 ml) and phenazine methosulfate ETA (25 μl at 3 mg/ml methanol). The volume of each test solution was brought to 3 ml with potassium phosphate buffer. A cell suspension (100 μl at about 10^8 cells/ml) was then added. The solutions were incubated at 37° C. for 15 and 30 minutes in the presence of either E. coli, a gram(-) bacterium, or S. aureus, a gram(+) bacterium. The amount of dye formed was then determined visually, and graded as follows: "O" indicates no dye formation, +/- indicates faint dye formation, 1+ indicates light dye formation, 2+ indicates moderate dye formation, 3+ indicates strong dye formation, and 4+ indicates very strong dye formation. […]

S. pyogenes = assay: RIND VII reduction solution assay, ΔOD 635 nm; format: cell-based, Streptococcus pyogenes; conditions: cell concentration 1.5 × 10^8 /ml, antibiotic 10^-4 molar
E. cloacae = assay: RIND XXIX reduction solution assay, Δ fluorescence; format: cell-based, Enterobacter cloacae; conditions: E. cloacae (gram -) about 5×10^7 cells/ml, gramicidin S 0.1 mg/ml, 37° C.
Experimental: as §1
(§2) Dispersions containing RIND compounds were prepared by dissolving the RIND compound in N,N-dimethylformamide (DMF) at 16 mg compound per ml of solvent. An aliquot (250 μl) of the resulting solution was added to 500 μl of TRITON X-100 surfactant. This mixture was then added dropwise with stirring to 25 ml of 0.05 molar HEPES buffer. A dispersion of RIND XXIX was prepared similarly except that DMF was acidified with 0.1% sulfuric acid. Compositions containing water-compatible RIND compounds were prepared as described above except the surfactant was omitted.
(§3) Each test solution contained the following: dispersion of RIND XXIX (25 μl) prepared as described above, glucose (400 μl of 10% aqueous solution), tryptose (400 μl of 10% aqueous solution), trimethyl-1,4-benzoquinone ETA (500 μl of 1.5 mg/ml methanol). Aliquots (200 μl) of the mixture were mixed with solutions of the antibiotics (50 μl). The cell suspensions (50 μl) were then added. The final concentration of gramcidin S and tyrocidin were 0.1 mg/ml and 3.3 mg/ml, respectively. The final cell concentration was about 5×10^7 cells/ml. Cell control solutions contained all reagents except antibiotics. Background controls consisted of both buffer and solution controls. […]
(§4) The solutions were incubated at 37° C. for 30 minutes, and the change in fluorescence emission (Δ fluorescence) was determined as the difference between the readings taken when the solutions were first mixed and then after 30 minutes incubation. Measurements were made in a commercially available MICROFLUOR Reader (available from Dynatech Laboratories, Alexandria, Virginia, U.S.A.), modified with an excitation filter at 540 nm, an emission filter at 620 nm and a Xenon lamp. […]

K. pneumoniae [1] = assay: RIND XXIX reduction solution assay, Δ fluorescence; format: cell-based, Klebsiella pneumoniae; conditions: K. pneumoniae (gram -) about 5×10^7 cells/ml, gramicidin S 0.1 mg/ml, 37° C.
Experimental: as §1, §2, §3, §4

S. faecalis = assay: MTT reduction solution assay, ΔOD 540 nm; format: cell-based, Streptococcus faecalis; conditions: S. faecalis (+) 5×10^7, gramicidin S 0.00625 mg/ml, 37° C.
Experimental: (§5) These examples illustrate the differentiation of bacteria using a tetrazolium salt and phenolic dye as the reducible compounds and two cyclic polypeptide antibiotics according to the present invention. The tetrazolium salt was 3-(4,5-dimethyl-2-thiazolyl) -2,5-diphenyl-2H-tetrazolium bromide (MTT) which forms a colored formazan dye when reduced. The phenolic dye was 2,6-dichloroindophenol (DCIP) which forms a colorless species when reduced.
(§6) Solutions of the reducible compounds were prepared with the following: HEPES buffer (3 ml, 0.05 molar, pH 7.5), TRITON X-100 nonionic surfactant (1% concentration), glucose (50 μl of 10% in water), tryptose (50 μl of a 10% solution in water), MTT (25 μl of 5 mg/ml methanol) or DCIP (25 μl of 3 mg/ml methanol) and phenazine methosultate ETA (25 μl of 3 mg/ml methanol).
(§7) Test solutions were prepared from the following: reducible compound solution from above (200 μl), 50 μl of either gramicidin S solution (6 mg/ml methanol and 9 ml of buffer) or tyrocidin solution (100 mg/ml methanol and 8 ml of buffer) and 50 μl of cell suspension. […] The change in optical density (ΔOD) was determined after 30 minutes at 37° C. at 540 nm for the MTT assay and at 620 nm for the DCIP assay using a commercially available spectrophotometer.

K. pneumoniae [2] = assay: MTT reduction solution assay, ΔOD 540 nm; format: cell-based, Klebsiella pneumoniae; conditions: K. pneumoniae (-) 5×10^7, gramicidin S 0.00625 mg/ml, 37° C.
Experimental: as §5, §6, §7

[3] = tested on: viable gram-positive and gram-negative bacteria; assay: Differentiation with dry analytical element, overall result; format: cell-based; conditions: dry analytical element with RIND IX
Experimental: The element used had the format and components illustrated below
The appropriate cell suspension (10 μl) was applied to the spreading/reagent layer of each element. The reflection density (DR) was measured at 640 nm. After 10 minutes of incubation at 37° C., the DR was again measured, giving a ΔDr value. A Control solution (10 μl of either 0.5 molar HEPES or potassium phosphate buffer) was also applied to the elements and the ΔDR was similarly determined. The difference between the two ΔDR values gives a test value corrected for background.

gramicidin S
Corrected ΔOD (15 Minutes) (E. coli): > 2.0
Corrected ΔOD (15 Minutes) (S. pyogenes): 0.186
Δ Fluorescence (30 Minutes) (E. cloacae): > 4000
Δ Fluorescence (30 Minutes) (K. pneumoniae [1]): 3084
ΔOD, 540 nm after 30 Minutes (S. faecalis): 0.073
ΔOD, 540 nm after 30 Minutes (K. pneumoniae [2]): 1.207
differentiation between viable gram-positive and gram-negative bacteria in an element, in words [3]: can be used in an element to differentiate between viable gram-positive and gram-negative bacteria
